Measured values taken from patent publication US9255100B2 (BAYER INTELLECTUAL PROPERTY GMBH, priority 2010, dated 2016).

Target: T1, N-terminally GST-tagged human full length recombinant Mps-1 kinase (Homo sapiens, UniProt P33981)
T1 construct: N-terminally GST-tagged human full length recombinant Mps-1 kinase; purchased Invitrogen, Karslruhe, Germany PV4071
T1 sequence (P33981 1-857): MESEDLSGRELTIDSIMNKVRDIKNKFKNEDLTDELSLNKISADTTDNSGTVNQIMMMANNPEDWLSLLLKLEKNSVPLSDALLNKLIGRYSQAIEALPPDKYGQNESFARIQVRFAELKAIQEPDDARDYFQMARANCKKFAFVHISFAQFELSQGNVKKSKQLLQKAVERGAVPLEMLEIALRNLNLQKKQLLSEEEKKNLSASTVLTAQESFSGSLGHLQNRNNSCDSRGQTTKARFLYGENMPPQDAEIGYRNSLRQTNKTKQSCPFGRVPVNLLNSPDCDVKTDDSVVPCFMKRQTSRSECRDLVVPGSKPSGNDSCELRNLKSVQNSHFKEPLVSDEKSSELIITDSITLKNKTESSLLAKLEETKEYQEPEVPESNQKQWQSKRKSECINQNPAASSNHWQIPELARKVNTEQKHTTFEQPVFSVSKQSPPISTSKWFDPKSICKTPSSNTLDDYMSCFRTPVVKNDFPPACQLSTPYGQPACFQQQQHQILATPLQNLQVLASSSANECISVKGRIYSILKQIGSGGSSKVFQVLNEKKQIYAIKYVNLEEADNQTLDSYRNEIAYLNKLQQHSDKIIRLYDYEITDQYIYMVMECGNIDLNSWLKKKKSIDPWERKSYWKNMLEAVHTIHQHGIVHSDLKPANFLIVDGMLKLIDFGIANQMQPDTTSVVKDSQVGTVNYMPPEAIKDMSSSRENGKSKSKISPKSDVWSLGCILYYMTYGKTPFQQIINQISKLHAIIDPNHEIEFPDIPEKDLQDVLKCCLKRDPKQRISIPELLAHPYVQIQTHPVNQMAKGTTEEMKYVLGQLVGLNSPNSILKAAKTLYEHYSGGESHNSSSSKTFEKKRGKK
Experiment: Mps-1 kinase assay (TR-FRET)
Type: biochemical
Details: Mps1 IC50 [nM], 10 μM ATP, 1 μM peptide substrate, 60 min at 22° C.
In short: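 Read-out: TR-FRET from Europium-labelled anti-phospho(Ser/Thr) antibody to SA-XLent after 1 h detection incubation at 22° C. Inhibition of kinase activity measured.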

Going from `CNc1cc(N(C)c2ccccc2O)nn2c(-c3ccc(C(=O)NC4CC4)c(C)c3)cnc12` [Example 532, N-cyclopropyl-4-{6-[(2-hydroxyphenyl)(methyl)amino]-8-(methylamino)imidazo[1,2-b]pyridazin-3-yl}-2-methylbenzamide] to `Cc1cc(-c2cnc3c(NCCC(F)(F)F)cc(Sc4ccccc4O)nn23)ccc1C(=O)NC1CC1` [Example 224, N-cyclopropyl-4-{6-[(2-hydroxyphenyl)sulfanyl]-8-[(3,3,3-trifluoropropyl)amino]imidazo[1,2-b]pyridazin-3-yl}-2-methylbenzamide], the IC50 falls from 0.2 nM to < 0.1 nM. The second is the more potent here.

Compared with `Cc1cc(-c2cnc3c(NCC(C)(C)O)cc(Nc4ccc(F)cc4)nn23)ccc1C(=O)NC1CC1` [Example 305, N-cyclopropyl-4-{6-[(4-fluorophenyl)amino]-8-[(2-hydroxy-2-methylpropyl)amino]imidazo[1,2-b]pyridazin-3-yl}-2-methylbenzamide], `Cc1cc(-c2cnc3c(NCC(C)(C)O)cc(Nc4ccncc4)nn23)ccc1C(=O)NC1CC1` [Example 365, N-cyclopropyl-4-{8-[(2-hydroxy-2-methylpropyl)amino]-6-(pyridin-4-ylamino)imidazo[1,2-b]pyridazin-3-yl}-2-methylbenzamide] is 7.3-fold higher in IC50: 0.6 nM for the first, 4.4 nM for the second. The first is the more potent here.

First: Cc1cc(-c2cnc3c(NCC(C)(C)O)cc(Sc4ccc(F)cc4)nn23)ccc1C(=O)NC1CC1 [Example 71, N-cyclopropyl-4-{6-[(4-fluorophenyl)sulfanyl]-8-[(2-hydroxy-2-methylpropyl)amino]imidazo[1,2-b]pyridazin-3-yl}-2-methylbenzamide]
Second: Cc1cc(-c2cnc3c(NCC(C)(C)O)cc(Sc4ccc(O)cc4)nn23)ccc1C(=O)NC1CC1 [Example 60A, N-cyclopropyl-4-{8-[(2-hydroxy-2-methylpropyl)amino]-6-[(4-hydroxyphenyl)sulfanyl]imidazo[1,2-b]pyridazin-3-yl}-2-methylbenzamide]
The IC50 of the first is 4-fold higher: 0.8 nM for the first, 0.2 nM for the second. The second is the more potent here.

First: c1cc(-c2cc(NC[C@@H]3CCCO3)c3ncc(-c4ccc(-c5cnc(C6CC6)[nH]5)cc4)n3n2)ccn1 [Example 4, 3-[4-(2-Cyclopropyl-1H-imidazol-5-yl)phenyl]-6-(pyridin-4-yl)-N-[(2S)-tetrahydrofuran-2-ylmethyl]imidazo[1,2-b]pyridazin-8-amine]
Second: c1cc(-c2cc(NCC3CCCCO3)c3ncc(-c4ccc(-c5cnc(C6CC6)[nH]5)cc4)n3n2)ccn1 (racemic) [Example 29, (RS) 3-[4-(2-Cyclopropyl-1H-imidazol-5-yl)phenyl]-6-(pyridin-4-yl)-N-(tetrahydro-2H-pyran-2-ylmethyl)imidazo[1,2-b]pyridazin-8-amine]
The IC50 of the first is 3.9-fold lower: 20.6 nM for the first, 80.2 nM for the second.

Going from `Cc1cc(-c2cnc3c(NCC4CCC(F)(F)CC4)cc(Oc4cccc(F)c4)nn23)ccc1C(=O)NC1CC1` [Example 494, N-cyclopropyl-4-[8-{[(4,4-difluorocyclohexyl)methyl]amino}-6-(3-fluorophenoxy)imidazo[1,2-b]pyridazin-3-yl]-2-methylbenzamide] to `Cc1cc(-c2cnc3c(NCC4COC4)cc(Oc4cccc(F)c4)nn23)ccc1C(=O)NC1CC1` [Example 495, N-cyclopropyl-4-{6-(3-fluoro-phenoxy)-8-[(oxetan-3-ylmethyl)amino]imidazo[1,2-b]pyridazin-3-yl}-2-methylbenzamide], the IC50 falls from 0.3 nM to 0.1 nM (3-fold). The second is the more potent here.

Going from `Cc1cc(-c2cnc3c(NCC4CCS(=O)(=O)CC4)cc(Oc4ccc(Cl)cc4)nn23)ccc1C(=O)NC1CC1` [Example 294A, 4-[6-(4-chlorophenoxy)-8-{[(1,1-dioxidotetrahydro-2H-thiopyran-4-yl)methyl]amino}imidazo[1,2-b]pyridazin-3-yl]-N-cyclopropyl-2-methylbenzamide] to `Cc1cc(-c2cnc3c(NC[C@H]4CC[S@@+]([O-])CC4)cc(Sc4cccc(F)c4)nn23)ccc1C(=O)NC1CC1` [Example 304A, N-cyclopropyl-4-(6-[(3-fluorophenyl)sulfanyl]-8-({[(cis)-1-oxidotetrahydro-2H-thiopyran-4-yl]methyl}amino)imidazo[1,2-b]pyridazin-3-yl)-2-methylbenzamide], the IC50 falls from 0.3 nM to < 0.1 nM. The second is the more potent here.

`Cc1cc(-c2cnc3c(NCCCO)cc(-c4ccnn4C)nn23)ccc1C(=O)NC1CC1` [Example 211, N-cyclopropyl-4-{8-[(3-hydroxypropyl)amino]-6-(1-methyl-1H-pyrazol-5-yl)imidazo[1,2-b]pyridazin-3-yl}-2-methylbenzamide] and `Cc1cc(-c2cnc3c(NCC(C)(C)O)cc(-c4ccc(F)cc4CO)nn23)ccc1C(=O)NC1CC1` [Example 299, N-cyclopropyl-4-{6-[4-fluoro-2-(hydroxymethyl)phenyl]-8-[(2-hydroxy-2-methylpropyl)amino]imidazo[1,2-b]pyridazin-3-yl}-2-methylbenzamide] are within 1.5-fold of each other in IC50: 5.8 nM for the first, 6.9 nM for the second.

Going from `C=Cc1cc(NCCC(F)(F)F)c2ncc(-c3ccc(-c4cnc(C5CC5)[nH]4)cc3)n2n1` [Example 22, 3-[4-(2-Cyclopropyl-1H-imidazol-5-yl)phenyl]-6-ethenyl-N-(3,3,3-trifluoropropyl)imidazo[1,2-b]pyridazin-8-amine] to `Cc1cc(-c2cnc3c(NCCC(F)(F)F)cc(Oc4ccccc4)nn23)ccc1C(=O)NC1CC1` [Example 77, N-cyclopropyl-2-methyl-4-{6-phenoxy-8-[(3,3,3-trifluoropropyl)amino]imidazo[1,2-b]pyridazin-3-yl}benzamide], the IC50 falls from 35.7 nM to < 0.7 nM. The second is the more potent here.

`Cc1cc(-c2cnc3c(NCCC(F)(F)F)cc(Oc4cccc(F)c4)nn23)ccc1C(=O)NCC(F)F` [Example 556, N-(2,2-difluoroethyl)-4-{6-(3-fluorophenoxy)-8-[(3,3,3-trifluoropropyl)amino]imidazo[1,2-b]pyridazin-3-yl}-2-methylbenzamide] and `Cc1cc(-c2cnc3c(NCCC(F)(F)F)cc(Sc4cccc(F)c4C)nn23)ccc1C(=O)NC1CC1` [Example 387, N-cyclopropyl-4-{6-[(3-fluoro-2-methylphenyl)sulfanyl]-8-[(3,3,3-trifluoropropyl)amino]imidazo[1,2-b]pyridazin-3-yl}-2-methylbenzamide] are the same in IC50: 0.3 nM for the first, 0.3 nM for the second.

First: COc1cc(C(=O)NC2CC2)ccc1-c1cnc2c(NCC(C)(C)O)cc(Sc3cccc(F)c3)nn12 [Example 62B, N-cyclopropyl-4-{6-[(3-fluorophenyl)sulfanyl]-8-[(2-hydroxy-2-methylpropyl)amino]imidazo[1,2-b]pyridazin-3-yl}-3-methoxybenzamide]
Second: Cc1cc(-c2cnc3c(NCCC(F)(F)F)cc(Sc4ccc(F)c(F)c4)nn23)ccc1C(=O)NC1CC1 [Example 249, N-cyclopropyl-4-{6-[(3,4-difluorophenyl)sulfanyl]-8-[(3,3,3-trifluoropropyl)amino]imidazo[1,2-b]pyridazin-3-yl}-2-methylbenzamide]
The IC50 of the first is 58-fold higher: 11.5 nM for the first, 0.2 nM for the second. The second is the more potent here.

Going from `Cc1cc(-c2cnc3c(NCCCC(F)(F)F)cc(Nc4ccc(F)c(F)c4)nn23)ccc1C(=O)NC1CC1` [Example 447, N-cyclopropyl-4-{6-[(3,4-difluorophenyl)amino]-8-[(4,4,4-trifluorobutyl)amino]imidazo[1,2-b]pyridazin-3-yl}-2-methylbenzamide] to `COCCNc1cc(NCC(C)(C)O)c2ncc(-c3ccc(C(=O)NC4CC4)c(C)c3)n2n1` [Example 331, N-cyclopropyl-4-{8-[(2-hydroxy-2-methylpropyl)amino]-6-[(2-methoxy-ethyl)amino]imidazo[1,2-b]pyridazin-3-yl}-2-methylbenzamide], the IC50 rises from 1.1 nM to 12.6 nM (11-fold).

`Cc1ccccc1-c1cc(NCC(C)C)c2ncc(-c3ccc(C(=O)NC4CC4)cc3)n2n1` [Example 110] and `CC(C)CNc1cc(-c2cccs2)nn2c(-c3ccc(C(=O)NC4CC4)cc3)cnc12` [Example 121, N-cyclopropyl-4-{8-[(2-methylpropyl)amino]-6-(thiophen-2-yl)imidazo [1,2-b]pyridazin-3-yl} benzamide] are within 1.5-fold of each other in IC50: 1.3 nM for the first, 1.8 nM for the second.

First: Cc1cc(-c2cnc3c(NCC4CN(C)CCO4)cc(Sc4ccccc4)nn23)ccc1C(=O)NC1CC1 (racemic) [Example 56, (RS)—N-cyclopropyl-2-methyl-4-[8-{[(4-methylmorpholin-2-yl)methyl]amino}-6-(phenylsulfanyl)imidazo[1,2-b]pyridazin-3-yl]benzamide]
Second: CCCSc1cc(NCC(C)C)c2ncc(-c3ccc(C(=O)NC4CC4)c(C)c3)n2n1 [Example 201, N-cyclopropyl-2-methyl-4-{8-[(2-methylpropyl)amino]-6-(propylsulfanyl)imidazo[1,2-b]pyridazin-3-yl}benzamide]
The IC50 of the first is lower: < 1 nM for the first, 2.3 nM for the second. The first is the more potent here.
